Structures are written as SMILES. pEC50, pIC50: −log10 of the molar value.

The test system of test [1] is IL-8. As to the kind of experiment: LPS-induced IL-8 release in d-U937 cells. Type of test: cell-based. The note with it: Homo sapiens, dU937, dU937 cells. Here is the method: (§1) U937 cells, a human monocytic cell line, were differentiated into macrophage-type cells by incubation with PMA (100 ng/mL) for 48 to 72 hr. Cells were pre-incubated with final concentrations of test compound for 2 hr and were then stimulated with LPS (0.1 μg/mL; from E. Coli: O111:B4, Sigma) for 4 hr. The supernatant was collected for determination of TNFα and IL-8 concentrations by sandwich ELISA (Duo-set, R&D systems). […] The relative 50% effective concentration (REC50) was determined from the resultant concentration-response curve. The inhibition of IL-8 production was calculated at each concentration of test compound by comparison with vehicle control.

Test [2] deals with IL-8. The test is described as follows: Rhinovirus-induced IL-8 release in BEAS2B cells. Type of test: cell-based. The note with it: Homo sapiens, BEAS-2B, at 0.04 μg/mL; read-out: HRV IL-8 (BEAS2B) % inhibition. Here is the method:
Human rhinovirus RV16 was obtained from the American Type Culture Collection (Manassas, Va.). Viral stocks were generated by infecting Hela cells with HRV until 80% of the cells were cytopathic.
BEAS2B cells were infected with HRV at an MOI of 5 and incubated for 2 hr at 33° C. with gentle shaking for to promote absorption. The cells were then washed with PBS, fresh media added and the cells were incubated for a further 72 hr. The supernatant was collected for assay of IL-8 concentrations using a Duoset ELISA development kit (R&D systems, Minneapolis, Minn.). […]

In the next test the test system is ICAM-1. As to the kind of experiment: Poly I:C-induced ICAM-1 expression in BEAS2B cells. Type of test: cell-based. The following applies: Homo sapiens, BEAS-2B, read-out: PolyIC/ICAM1 IC50 (BEAS2B). Here is the method: Poly I:C was used in these studies as a simple, RNA virus mimic. Poly I:C-Oligofectamine mixture (1 μg/mL Poly I:C, ±2% Oligofectamine, 25 μL; Invivogen Ltd., San Diego, Calif., and Invitrogen, Carlsbad, Calif., respectively) was transfected into BEAS2B cells (human bronchial epithelial cells, ATCC). Cells were pre-incubated with final concentrations of test compounds for 2 hr and the level of ICAM-1 expression on the cell surface was determined by cell-based ELISA. At a time point 18 hr after poly I:C transfection, cells were fixed with 4% formaldehyde in PBS (100 μL) and then endogenous peroxidase was quenched by the addition of washing buffer (100 μL, 0.05% Tween in PBS: PBS-Tween) containing 0.1% sodium azide and 1% hydrogen peroxide. Cells were washed with wash-buffer (3×200 μL). and after blocking the wells with 5% milk in PBS-Tween (100 μL) for 1 hr, the cells were incubated with anti-human ICAM-1 antibody (50 μL; Cell Signaling Technology, Danvers, Mass.) in 1% BSA PBS overnight at 4° C.
The cells were washed with PBS-Tween (3×200 μL) and incubated with the secondary antibody (100 μL; HRP-conjugated anti-rabbit IgG, Dako Ltd., Glostrup, Denmark). The cells were then incubated with of substrate (50 μL) for 2-20 min, followed by the addition of stop solution (50 μL, 1N H2SO4). The ICAM-1 signal was detected by reading […] the absorbance at 450 nm against a reference wavelength of 655 nm using a spectrophotometer. The cells were then washed with PBS-Tween (3×200 μL) and total cell numbers in each well were determined by reading absorbance at 595 nm after Crystal Violet staining (50 μL of a 2% solution in PBS) and elution by 1% SDS solution (100 μL) in distilled water. The measured OD 450-655 readings were corrected for cell number by dividing with the OD595 reading in each well. The inhibition of ICAM-1 expression was calculated at each concentration of test compound by comparison with vehicle control.

A further test has as its system PBMC. As to the kind of experiment: Cell mitosis assay. The following applies: Homo sapiens, read-out: Mitosis Assay % inhibition in PBMC Cells at concn 5 μg/mL. In kind it is cell-based. Here is the method: Peripheral blood mononucleocytes (PBMCs) from healthy subjects were separated from whole blood (Quintiles, London, UK) using a density gradient (Histopaque®-1077, Sigma-Aldrich, Poole, UK). The PBMCs (3 million cells per sample) were subsequently treated with 2% PHA (Sigma-Aldrich, Poole, UK) for 48 hr, followed by a 20 hr exposure to varying concentrations of test compounds. At 2 hr before collection, PBMCs were treated with demecolcine (0.1 μg/mL; Invitrogen, Paisley, UK,) to arrest cells in metaphase. To observe mitotic cells, PBMCs were permeabilised and fixed by adding Intraprep (50 μL; Beckman Coulter, France), and stained with anti-phospho-histone 3 ([…]; #9701; Cell Signalling, Danvers, Mass.) and propidium iodide (1 mg/mL; Sigma-Aldrich, Poole, UK,) as previously described (Muehlbauer P. A. and Schuler M. J., Mutation Research, 2003, 537:117-130). Fluorescence was observed using an ATTUNE flow cytometer (Invitrogen, Paisley, UK), gating for lymphocytes.

Test [3] has as its system TNFα. As to the kind of experiment: LPS-induced TNFα release in d-U937 cells. Type of test: cell-based. The note with it: Homo sapiens, dU937, dU937 cells; relative to 10 μg/mL BIRB796; read-out: LPS Induced Release TNFα REC50 (dU937). Here is the method: as §1
Test [4] concerns TNFα. The test is described as follows: LPS-induced TNFα release in THP-1 cells. Type of test: cell-based. The following applies: Homo sapiens, THP-1, THP1 cells. Here is the method: THP-1 cells, a human monocytic cell line, were stimulated with 3 μg/mL of LPS (from E. Coli; 0111:B4, Sigma) for 4 hr and the supernatant collected for determination of the TNFα concentration by sandwich ELISA (Duo-set, R&D systems). The inhibition of TNFα production was calculated at each concentration by comparison with vehicle control.

Another test relates to HRV16. The test is described as follows: HRV16 induced CPE in MRC5 cells. The note with it: Human rhinovirus sp., HRV16, MRC5, at 0.04 μg/mL; read-out: HRV CPE (MRC5) % inhibition. Type of test: cell-based. Here is the method:
The supernatants were aspirated, and then fresh media added followed by incubation for 4 days. Where appropriate, cells were pre-incubated with compound or DMSO for 2 hr, and the compounds and DMSO added again after washout of the virus.
The percentage inhibition for each well was calculated. The IC50 value was calculated from the concentration-response curve generated by the serial dilutions of the test compounds.

The test system of the next test is RSV A2. The test is described as follows: In vitro RSV virus load (F-protein ELISA) in primary bronchial epithelial cells. Type of test: cell-based, respiratory syncytical virus. The following applies: human respiratory syncytial virus, Primary bronchial epithelial cell; at 0.04 μg/mL; read-out: RSV (F-Elisa) (HBEC) % inhibition. Here is the method: Normal human bronchial epithelial cells (NHBEC) grown in 96 well plates were infected with RSV A2 (Strain A2, HFA, Salisbury, UK) at an MOI of 0.001 in the LHC8 Media:RPMI-1640 (50:50) containing 15 mM magnesium chloride and incubated for 1 hr at 37° C. for adsorption. The cells were then washed with PBS (3×200 μL), fresh media (200 μL) was added and incubation continued for 4 days. Where appropriate, cells were pre-incubated with the compound or DMSO for 2 hr, and then added again after washout of the virus.
The cells were fixed with 4% formaldehyde in PBS solution (50 μL) for 20 min, washed with washing buffer (3×200 μL; PBS including 0.5% BSA and 0.05% Tween-20) and incubated with blocking solution (5% condensed milk in PBS) for 1 hr. Cells were then washed with washing buffer (3×200 μL) and incubated for 1 hr at RT with anti-RSV (2F7) F-fusion protein antibody (40 μL; mouse monoclonal, lot 798760, Cat. No. ab43812, Abcam) in 5% BSA in PBS-tween). After washing, cells were incubated with an HRP-conjugated secondary antibody solution (50 μL) in 5% BSA in PBS-Tween (lot 00053170, Cat.No. P0447, Dako) and then TMB substrate (50 μL; substrate reagent pack, lot 269472, Cat. No. DY999, R&D Systems, Inc.) was added. This reaction was stopped by the addition of 2N H2SO4 (50 μL) and the resultant signal was determined colorimetrically (OD: 450 nm with a reference wavelength of 655 nm) in a microplate reader (Varioskan® Flash, ThermoFisher Scientific).
After washing with washing buffer, 1% SDS in distilled water (100 μL) was added to each well, and plates were shaken lightly on the shaker for 1 hr prior to reading the absorbance at 595 nm. The measured OD450-655 readings were corrected to the cell number by dividing the OD450-655 by the OD595 readings. The percentage inhibition for each well was calculated and the IC50 value was calculated from the concentration-response curve generated from the serial dilutions of compound.
Background: ELISA stands for enzyme-linked immunosorbent assay.

In the case of `Cc1ccc(-n2nc(C(C)(C)C)cc2NC(=O)Nc2ccc(Oc3ccnc(Nc4ccc(O)cc4)n3)c3ccccc23)cc1` [Example 9, 1-(3-(tert-butyl)-1-(p-tolyl)-1H-pyrazol-5-yl)-3-(4-((2-((4-hydroxyphenyl)amino)pyrimidin-4-yl)oxy)naphthalen-1-yl)urea], the values for the pIC50 with IL-8 [1], in the test with ICAM-1 and in the test with TNFα [4] were 8.66, 8.52 and 8.89, respectively. Further, the inhibition at 0.04 µg/mL with IL-8 [2] and with HRV16 was 100% in each case. The inhibition at 5 µg/mL in the test on PBMC is 50.3%. Moreover, in the test with TNFα [3], the pEC50 is 8.77.
Turning to `Cc1ccc(-n2nc(C(C)(C)C)cc2NC(=O)Nc2ccc(Oc3ccnc(Nc4ccccc4C)n3)c3ccccc23)cc1` [Example 21, 1-(3-(tert-butyl)-1-(p-tolyl)-1H-pyrazol-5-yl)-3-(4-((2-(o-tolylamino)pyrimidin-4-yl)oxy)naphthalen-1-yl)urea], the figures for the pIC50 with IL-8 [1] and in the test on TNFα [4] were less than 5.78 and 7.77, respectively. Moreover, the inhibition at 0.04 µg/mL was 100% in the test on IL-8 [2], 66% with RSV A2 and 3% with HRV16. The pEC50 with TNFα [3] was 8.01.
Turning to `CCOc1ccc(Nc2nccc(Oc3ccc(NC(=O)Nc4cc(C(C)(C)C)nn4-c4ccc(C)cc4)c4ccccc34)n2)cc1` [Example 22, 1-(3-(tert-butyl)-1-(p-tolyl)-1H-pyrazol-5-yl)-3-(4-((2-((4-ethoxyphenyl)amino)pyrimidin-4-yl)oxy)naphthalen-1-yl)urea], the pIC50 in the test on IL-8 [1] is less than 5.80; in the test with TNFα [4], 7.52. Further, the inhibition at 0.04 µg/mL turned out to be 100% in the test on IL-8 [2], 78% with RSV A2 and 48% in the test on HRV16. The inhibition at 5 µg/mL with PBMC is 70.8%. Besides, the pEC50 in the test on TNFα [3] was 7.77.
Turning to `Cc1ccc(-n2nc(C(C)(C)C)cc2NC(=O)Nc2ccc(Oc3ccnc(Nc4ccc(F)cc4)n3)c3ccccc23)cc1` [Example 23, 1-(3-(tert-butyl)-1-(p-tolyl)-1H-pyrazol-5-yl)-3-(4-((2-((4-fluorophenyl)amino)pyrimidin-4-yl)oxy)naphthalen-1-yl)urea], the values for the pIC50 in the test on IL-8 [1] and in the test with TNFα [4] were 7.66 and 7.62, respectively. The inhibition at 0.04 µg/mL in the test on IL-8 [2] was found to be 100%; in the test with RSV A2 it was 41%; with HRV16, 18%. Also, the pEC50 with TNFα [3] is 8.10.
Take `Cc1ccc(-n2nc(C(C)(C)C)cc2NC(=O)Nc2ccc(Oc3ccnc(Nc4ccc(O)cc4C)n3)c3ccccc23)cc1` [Example 24, 1-(3-(tert-butyl)-1-(p-tolyl)-1H-pyrazol-5-yl)-3-(4-((2-((4-hydroxy-2-methylphenyl)amino)pyrimidin-4-yl)oxy)naphthalen-1-yl)urea]: the pIC50 was 7.07 in the test on IL-8 [1], 8.30 with ICAM-1 and 9.10 with TNFα [4]. In addition, the inhibition at 0.04 µg/mL in the test with IL-8 [2] is 100%; with HRV16, 41%. Further, the pEC50 in the test on TNFα [3] is 8.64.
As to `Cc1ccc(-n2nc(C(C)(C)C)cc2NC(=O)Nc2ccc(Oc3ccnc(Nc4ccc(C)c(O)c4)n3)c3ccccc23)cc1` [Example 26, 1-(3-(tert-butyl)-1-(p-tolyl)-1H-pyrazol-5-yl)-3-(4-((2-((3-hydroxy-4-methylphenyl)amino)pyrimidin-4-yl)oxy)naphthalen-1-yl)urea], the pIC50 was 8.18 in the test on IL-8 [1], 8.08 in the test on ICAM-1 and 8.72 in the test on TNFα [4]. Further, the inhibition at 0.04 µg/mL was 100% in the test with IL-8 [2] and 69% in the test on HRV16. The pEC50 in the test with TNFα [3] is 8.39.
On to `Cc1ccc(-n2nc(C(C)(C)C)cc2NC(=O)Nc2ccc(Oc3ccnc(Nc4ccc(O)c(F)c4)n3)c3ccccc23)cc1` [Example 29, 1-(3-(tert-butyl)-1-(p-tolyl)-1H-pyrazol-5-yl)-3-(4-((2-((3-fluoro-4-hydroxyphenyl)amino)pyrimidin-4-yl)oxy)naphthalen-1-yl)urea], for which the pIC50 is 8.64 with IL-8 [1], 8.55 in the test on ICAM-1 and 8.80 in the test with TNFα [4]. Also, the inhibition at 0.04 µg/mL stood at 100% with IL-8 [2] and 13% in the test with HRV16. For the same molecule, in the test on TNFα [3], the pEC50 was 7.96.

The values above are taken from US10238658B2, “1-pyrazolyl-3-(4-((2-anilinopyrimidin-4-yl) oxy) napththalen-1-yl) ureas as p38 MAP kinase inhibitors” (Respivert Limited, priority 2011, dated 2019).
